Test results published in patent US6852501B2, “Methods for determining ATPase activity and uses thereof” (Boehringer Ingelheim (Canada) Ltd., priority 1999, dated 2005).
Where two headings read alike, the source gives them in different places.

Legend:
HPV-11 E1 = target: T1, HPV-11 E1 (Human papillomavirus 11, UniProt P04014); assay: E1 ATPase SPA kinetic analysis (Km/Ki); format: biochemical, human papilloma virus
T1 construct: polyhistidine; made in house; host or cells: baculovirus-infected insect cells
T1 sequence (P04014 whole entry): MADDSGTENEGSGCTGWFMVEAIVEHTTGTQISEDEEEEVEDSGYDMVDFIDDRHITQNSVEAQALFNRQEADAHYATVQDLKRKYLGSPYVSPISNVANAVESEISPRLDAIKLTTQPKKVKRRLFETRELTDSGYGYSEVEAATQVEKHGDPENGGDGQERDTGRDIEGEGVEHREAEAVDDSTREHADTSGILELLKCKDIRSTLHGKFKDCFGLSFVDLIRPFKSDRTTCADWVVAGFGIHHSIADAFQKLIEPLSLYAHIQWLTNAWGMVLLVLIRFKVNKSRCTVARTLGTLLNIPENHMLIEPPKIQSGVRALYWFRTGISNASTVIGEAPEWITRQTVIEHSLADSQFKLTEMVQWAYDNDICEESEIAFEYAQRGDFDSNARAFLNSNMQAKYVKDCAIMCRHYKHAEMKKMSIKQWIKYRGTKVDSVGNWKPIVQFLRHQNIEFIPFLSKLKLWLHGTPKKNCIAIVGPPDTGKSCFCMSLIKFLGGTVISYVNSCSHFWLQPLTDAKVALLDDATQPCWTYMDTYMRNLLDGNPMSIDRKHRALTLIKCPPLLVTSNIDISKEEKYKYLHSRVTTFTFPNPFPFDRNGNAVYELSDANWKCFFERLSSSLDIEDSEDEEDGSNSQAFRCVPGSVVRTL
Description: Polyhistidine-tagged HPV-11 E1 was expressed in baculovirus-infected insect cells and purified by Ni-affinity chromatography as described in WO 99/57283 (incorporated herein by reference).
ATPase time-courses were run at different concentrations of ATP in order to determine the kinetic parameter Km(ATP) for HPV-11 E1. Reactions were run under similar conditions in both experiments, using the procedures given in Examples 1 and 2, except that the concentration of Igepal-CA630 was 0.01% rather than 0.005% and with experiment-specific changes noted below. The E1 concentration was 2 nM and the ATP concentrations ranged from 3-75 μM (TLC) or 2-50 μM (SPA), with the MgOAc concentration equal to the ATP concentration plus 0.5 mM. Stock solutions of ATP at each concentration were obtained by diluting the highest concentration solution with buffer containing 0.5 mM MgOAc; thus a constant ratio of radiolabeled to unlabeled ATP was used for all reactions. Reaction rates were measured by taking time-points from 10 or 20 to 120 minutes. To insure initial velocity conditions, time-points giving greater than 20% conversion were not used for analysis.
Total reaction volumes were 150 μL. For each time-point, 20 μL of reaction mixture was removed and combined with 40 μL of ammonium molybdate/SPA bead mixture followed by 80 μL of CsCl/citric acid. All reactions were run in triplicate. Plates were counted after overnight incubation. At the last time-point, an additional 20 μL aliquot was removed and combined with 10 μL 0.5 M EDTA. In this case, the conversion of ATP to phosphate was quantified by TLC, and the concentration of phosphate determined by TLC was compared to the cpm from the SPA procedure, after subtraction of blanks in both cases. The relationship between phosphate concentration and cpm is linear and the slope of the line was used to convert cpm values from SPA detection to concentration of phosphate produced. Rates of phosphate production at each ATP concentration were fit by nonlinear regression to the Michaelis-Menten equation using the program Grafit (V 3.01, R. Leatherbarrow).
The γ-thio phosphate analog of ATP inhibits many ATPases by a competitive mechanism. Experimental determination of the mechanism of inhibitor action requires measuring initial velocities for a number of substrate and inhibitor concentrations. The number of data points needed (several hundred) and the precision required for this experiment mean that performing the experiment by TLC detection is much more difficult and tedious. The SPA procedure works well, however. For this experiment, ATP concentrations of 5, 10, 20 and 40 μM were used, along with inhibitor concentrations of 0, 3, 6, 12 and 24 μM. Reactions were run as described for Example 9 (SPA detection). Data were processed as above and fit by nonlinear regression to an equation for competitive inhibition using GraFit. […] The plot was generated in Excel using the fitted parameters for the lines and the experimental values for points. For comparison, the data were also fit to an equation for non-competitive inhibition (equal binding of inhibitor to enzyme and enzyme-substrate complexes). […] Because of the quality of the data obtained it is possible to observe a systematic deviation between the experimental and fitted values for this second mechanism, especially at higher inhibitor concentrations.

[1] = target: HPV-6a ATPase activity (HPV-6 E1) (Human papillomavirus type 6a, UniProt Q84293); assay: E1 ATPase scintillation proximity assay, IC50 curves; format: biochemical, human papilloma virus; conditions: nonlinear regression; 1 μM ATP, 6 nM HPV-6 E1, 75 minutes, SPA detection; read-out: IC50 for inhibition of HPV-6a ATPase activity
HPV-6a ATPase activity (HPV-6 E1), sequence (Q84293 whole entry): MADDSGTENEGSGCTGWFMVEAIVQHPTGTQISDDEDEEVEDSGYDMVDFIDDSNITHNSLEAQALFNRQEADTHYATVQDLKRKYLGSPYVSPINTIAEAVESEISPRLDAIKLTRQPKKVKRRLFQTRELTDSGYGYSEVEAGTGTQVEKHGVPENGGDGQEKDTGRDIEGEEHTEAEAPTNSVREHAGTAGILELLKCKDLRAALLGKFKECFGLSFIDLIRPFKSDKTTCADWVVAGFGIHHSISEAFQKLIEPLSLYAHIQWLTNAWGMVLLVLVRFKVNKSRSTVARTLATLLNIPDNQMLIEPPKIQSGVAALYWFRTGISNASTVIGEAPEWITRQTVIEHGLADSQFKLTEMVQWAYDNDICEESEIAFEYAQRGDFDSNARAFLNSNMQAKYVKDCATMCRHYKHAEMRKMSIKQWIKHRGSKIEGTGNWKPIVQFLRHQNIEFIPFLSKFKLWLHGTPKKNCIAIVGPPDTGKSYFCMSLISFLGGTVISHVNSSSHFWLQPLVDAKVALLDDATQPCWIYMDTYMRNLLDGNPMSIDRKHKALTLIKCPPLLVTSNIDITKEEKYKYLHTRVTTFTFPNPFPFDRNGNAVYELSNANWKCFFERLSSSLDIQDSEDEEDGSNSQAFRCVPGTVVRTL
Description: Radiolabeled [γ-^33P]ATP (NEN) was prepared upon receipt by diluting it 100-fold in the reaction buffer and storing it at −80° C. Material stored in this way was good for greater than one month. E1 ATPase reactions were run in a buffer consisting of 20 mM HEPES, pH 7.5, 0.05 mM EDTA and 1 mM DTT, and 0.05% Igepal CA-630 (equivalent to Nonidet P40). Volumes and concentrations given below are typical, but these can be varied somewhat with minimal effect on results, as shown in later examples. One μM ATP (Amersham Pharmacia) and 500 μM MgOAc were mixed with [γ-^33P]ATP at 100-fold dilution from the stored material (10,000 dilution from the stock), or approximately 1 nCi/μL when fresh. The actual ATP concentration contributed by [γ-^33P]ATP was approximately 1 nM; this amount could be reduced further if necessary. […]
At the desired time, 40 μL reactions were stopped by adding 20 PL of a SPA bead-AmMo mixture. […] The extent of phosphate production was then determined by scintillation counting using the TopCount (Packard). If desired, cpm can be converted to phosphate concentration by comparison of SPA results to those determined by TLC (see below) for identical reactions. […]
All solutions are made in the assay buffer described in Example 3 except that the assay buffer also contained 0.005% Igepal CA-630. […] After mixing briefly, plates were left for 90 minutes and then counted on a TopCount. […]

**Q.** How did the Km (HPV-11 E1; background statement, measured in the absence of DNA, read-out: Km (ATP) of the HPV-11 E1 ATPase) turn out when `Nc1ncnc2c1ncn2[C@@H]1O[C@H](COP(=O)(O)OP(=O)(O)OP(=O)(O)O)[C@@H](O)[C@H]1O` [ATP] was run?
**A.** ~10 µM

**Q.** What about the Km (HPV-11 E1; fit to competitive inhibition, read-out: Km(ATP)) of the same compound?
**A.** 6.7 ± 0.7 µM

**Q.** What about the Km (HPV-11 E1; fit to non-competitive inhibition, read-out: Km(ATP)) of the same compound?
**A.** 12 ± 2 µM

**Q.** Which results are given for “adenosine-5′-O-(3-thiotriphosphate) [ATP-γ-S]”?
**A.** IC50 [1]: 8 ± 1.6 µM; mechanism of inhibition (HPV-11 E1; comparison of competitive and noncompetitive fits): the competitive model is more appropriate; Ki(ATP-γ-S) (HPV-11 E1; fit to non-competitive inhibition (equal binding to enzyme and enzyme-substrate complexes)): 16 ± 2 µM
